According to US12215123B2, “Cordycepin-based derivatized compound with anti-tumor effect” (NANJING TECH UNIVERSITY, priority 2022, dated 2025):

Legend:
[1] = test system: small cell lung cancer cell line H1048; assay: MTT proliferation, small cell lung cancer cell line H1048; assay type: cell-based; settings: MTT, 72 hours, H1048; read-out: IC50 (μM) of compounds in small cell lung cancer cells, H1048
Method: (§1) The method for determining inhibitory activities of the compounds on the proliferation of tumor cells by an MTT method is as follows: a bottle of cells in a good state in an exponential growth phase is added with 0.25% trypsin digestive juice, the digestion makes adherent cells fall off, with 2 to 4×10^4 cells/mL, and a cell suspension is prepared. The cell suspension is inoculated on a 96-well plate, with 90 μL/well, and cultured in a constant-temperature CO2 incubator for 24 hours. The prepared compounds are added for testing, with 10 μL/well, and cultured for 72 hours. An MTT reagent is added into a 96-well plate, with 10 μL/well, and reacts in an incubator for 4 hours to absorb a supernatant, and then dimethyl sulfoxide is added, with 100 μL/well. After a crystal is dissolved, an absorbance of each well at a wavelength of 570 nm is measured by an enzyme-linked immunosorbent assay instrument, and a cell inhibition rate is calculated. An S curve is made with a compound concentration and a corresponding inhibition rate. Therefore, IC50 of a corresponding compound is obtained.
(§2) Anti-tumor dose-effect relationship curves of cordycepin and compounds 1, 2, 4, 5, 7, 8, 10, 12, 16, 18, 21, 23, 24, 35 and 38 in small cell lung cancer cell lines H1048, H446 and H69 were analyzed by an MTT experimental method.

[2] = test system: small cell lung cancer cell line H446; assay: MTT proliferation, small cell lung cancer cell line H446; assay type: cell-based; settings: MTT, 72 hours, H446; read-out: IC50 (μM) of compounds in small cell lung cancer cells, H446
Method: as §1, §2

MC-38 colon cancer cells = assay: Mouse transplanted colon cancer model; assay type: in vivo, C57BL/6j nude mice; settings: MC-38 transplanted mice, 28 days, 500 ug/time/animal intragastric (compound daily, antibody every 4 days); control 1,300 mm^3
Method: The feeding of the mouse model in the drug evaluation follows that: mice are fed and treated in a laminar flow cabinet, with 5 nude mice in each cage, drinking water and feedstuffs are added once every 3 days, and paddings are replaced once a week; a number of mice kept in each cage is no more than 5, the mice in separate cages are kept in groups as far as possible, and the mice should not be kept in a single cage; the animal management must conform to the relevant national standards on animal feeding management, and the behavioral needs of animals should be concerned at the same time to avoid unnecessary stress; the normal physiological and behavioral needs of animals, such as defecation, urination, constant body temperature maintenance, normal activities, posture adjustment and reproduction are met; good ventilation and dry animals are kept; the animals can access to drinking water and food at will, and supplementation, replacement and cleaning operations are easily carried out; a solid and safe environment is provided to avoid accidents of animals, such as escaping or limb trapping in a gap; the animals are avoided from being damaged by sharp edges or protrusions; and the animals are not disturbed during observation.
A mouse transplanted colon cancer model was established and a drug was evaluated. […]

[3] = test system: gastric cancer cell line BGC-823; assay: MTT proliferation, gastric cancer cell line BGC-823; assay type: cell-based; settings: MTT, 72 hours, BGC-823; read-out: IC50 (μM) in gastric cancer cells, BGC-823
Method: as §1
(§3) Anti-tumor dose-effect relationship curves of the cordycepin and 40 compounds prepared in gastric cancer cell lines AGS and BGC-823 were analyzed by an MTT experimental method.

[4] = test system: gastric cancer cell line AGS; assay: MTT proliferation, gastric cancer cell line AGS; assay type: cell-based; settings: MTT, 72 hours, AGS; read-out: IC50 (μM) in gastric cancer cells, AGS
Method: as §1, §3

[5] = test system: small cell lung cancer cell line H69; assay: MTT proliferation, small cell lung cancer cell line H69; assay type: cell-based; settings: MTT, 72 hours, H69; read-out: IC50 (μM) of compounds in small cell lung cancer cells, H69
Method: as §1, §2

For `CC(C)OC(=O)[C@H](C)NP(=O)(COCC1CC(C#N)C(n2cnc3c(N)ncnc32)O1)Oc1ccccc1` (stereo partly drawn) [Compound 16], the IC50 [1] was 25.5 µM, the IC50 [2] was 19.1 µM and the tumor size (MC-38 colon cancer cells) was 480 mm^3. For the same molecule, the IC50 [3] was 0.19 µM, the IC50 [4] was 0.14 µM and the IC50 [5] was 23.3 µM.
